Read-outs that look alike come from different tables or passages of the source.
Legend:
AOC1 = target: T1, AOC1 (Homo sapiens, UniProt P19801); experiment: AOC1 biochemical assay (Amplex Red)
T1 construct: purchased R&D Systems 8297-AO-010
T1 sequence (P19801 20-751): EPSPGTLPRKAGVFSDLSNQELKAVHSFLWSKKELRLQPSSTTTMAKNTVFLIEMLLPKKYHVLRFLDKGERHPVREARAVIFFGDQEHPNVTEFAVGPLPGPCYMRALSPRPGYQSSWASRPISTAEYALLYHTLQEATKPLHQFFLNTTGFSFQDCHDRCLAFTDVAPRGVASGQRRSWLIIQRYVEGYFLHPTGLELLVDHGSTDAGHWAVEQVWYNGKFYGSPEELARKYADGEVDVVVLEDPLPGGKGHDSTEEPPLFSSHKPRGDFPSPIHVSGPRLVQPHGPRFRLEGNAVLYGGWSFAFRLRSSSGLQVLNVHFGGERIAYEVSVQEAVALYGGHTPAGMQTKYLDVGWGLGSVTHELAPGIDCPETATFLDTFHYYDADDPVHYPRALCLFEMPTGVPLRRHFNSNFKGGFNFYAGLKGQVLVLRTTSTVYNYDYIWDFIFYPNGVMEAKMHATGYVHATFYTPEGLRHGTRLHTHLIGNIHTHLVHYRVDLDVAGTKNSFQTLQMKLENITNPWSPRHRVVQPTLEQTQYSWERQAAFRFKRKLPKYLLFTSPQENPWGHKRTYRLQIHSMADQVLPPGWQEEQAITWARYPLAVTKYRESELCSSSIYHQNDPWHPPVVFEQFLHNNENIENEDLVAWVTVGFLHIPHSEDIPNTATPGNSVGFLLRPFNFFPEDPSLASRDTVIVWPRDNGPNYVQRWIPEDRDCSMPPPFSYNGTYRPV
Excerpt: The Amplex® Red Assay (available from Thermo Fisher Scientific) provides a sensitive method for the detection of H2O2 generated during enzymatic reactions like the amine oxidation catalyzed by AOC1.

AOC3 = target: T2, AOC3 (Homo sapiens, UniProt Q16853); experiment: AOC3 biochemical assay (MAO-Glo)
T2 construct: expressed in transfected cells; host or cells: CHO cells
T2 sequence (Q16853 1-763): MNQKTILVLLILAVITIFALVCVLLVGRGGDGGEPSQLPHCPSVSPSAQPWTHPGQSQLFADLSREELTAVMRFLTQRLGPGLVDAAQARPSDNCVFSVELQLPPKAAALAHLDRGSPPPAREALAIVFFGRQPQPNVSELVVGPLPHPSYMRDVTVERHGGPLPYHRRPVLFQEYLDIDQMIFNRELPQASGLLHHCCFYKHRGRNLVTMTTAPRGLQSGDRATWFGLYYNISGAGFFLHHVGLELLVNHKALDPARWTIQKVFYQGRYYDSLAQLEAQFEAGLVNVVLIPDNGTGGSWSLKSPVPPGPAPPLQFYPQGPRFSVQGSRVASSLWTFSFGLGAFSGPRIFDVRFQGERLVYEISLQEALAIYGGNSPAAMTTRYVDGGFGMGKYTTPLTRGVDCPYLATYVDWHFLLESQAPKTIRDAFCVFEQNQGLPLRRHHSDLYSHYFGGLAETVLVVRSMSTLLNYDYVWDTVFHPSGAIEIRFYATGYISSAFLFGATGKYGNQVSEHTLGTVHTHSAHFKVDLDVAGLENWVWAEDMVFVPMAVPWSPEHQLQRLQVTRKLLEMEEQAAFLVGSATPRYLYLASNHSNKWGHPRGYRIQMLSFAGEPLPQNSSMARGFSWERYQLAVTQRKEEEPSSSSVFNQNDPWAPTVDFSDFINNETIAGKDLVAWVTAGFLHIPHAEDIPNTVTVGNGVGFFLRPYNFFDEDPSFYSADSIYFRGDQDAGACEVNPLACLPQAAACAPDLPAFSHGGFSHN
Method: As substrate a derivate of the beetle luciferin ((4S)-4,5-dihydro-2-(6-hydroxybenzothiazolyl)-4-thiazole-carboxylic acid) is used, which is oxidized at a primary amine moiety. After a spontaneous elimination and a catalyzed esterase reaction, the turnover of the luciferine by the luciferase is recorded as a signal of AOC3 activity.
Recombinant CHO cells, overexpressing the human (1500 cells/well), mouse (1000 cells/well) or rat (500 cells/well) AOC3 enzyme are diluted in reaction buffer and added in a volume of 15 μL to the wells. After incubation for 20 minutes at 37° C., 2 μL of MAO substrate (dissolved in DMSO at 16 mM, adjusted to assay concentration in reaction buffer to a final assay concentration of 20 μM) is added and further incubated for 60 minutes at 37° C. The turnover of the substrate is determined by the addition of 20 μL of the detection-mix which was generated by the addition of reconstitution buffer with esterase (PROMEGA, #V1402) to the luciferine detection reagent (PROMEGA, #V1402).

[1] = Table 2, comparison with compounds of EP 2 695 881, read-out: IC50 AOC1
[2] = Table 2, comparison with compounds of EP 2 695 881, read-out: IC50 AOC3

| IC50 (AOC1; Table 1, read-out: AOC1 IC50) [nM] | IC50 (AOC3; Table 1, read-out: AOC3 IC50) [nM] | IC50 (AOC1; [1]) [nM] | IC50 (AOC3; [2]) [nM] | melting point [°C] | SMILES |
| --- | --- | --- | --- | --- | --- |
| 3480 | 11 | – | – | – | COCCOc1ncc(-c2cccc(COC(=O)NC(=N)N)n2)cn1 [Example 10] |
| 612 | 3 | – | – | – | N=C(N)NC(=O)OCc1cccc(-c2cnc(OCc3nccs3)nc2)n1 [Example 31] |
| 7600 | 27 | – | – | – | Cc1ncc(-c2cccc(COC(=O)NC(=N)N)n2)cn1 [Example 01] |
| 899 | 3 | – | – | – | N=C(N)NC(=O)OCc1cccc(-c2cnc(OCC3CCOCC3)nc2)n1 [Example 33] |
| 3290 | 15 | – | – | – | CC(Oc1ncc(-c2cccc(COC(=O)NC(=N)N)n2)cn1)c1ccon1 (centres unmarked) [Example 28] |
| 10200 | 15 | – | – | – | CSc1ncc(-c2cccc(COC(=O)NC(=N)N)n2)cn1 [Example 06] |
| 1590 | 4 | – | – | 183 | N=C(N)NC(=O)OCc1cccc(-c2cnc(OCc3ccon3)nc2)n1 [Example 24, [6-[2-(isoxazol-3-ylmethoxy)pyrimidin-5-yl]-2-pyridyl]methyl N-carbamimidoylcarbamate] |
| 2390 | 15 | – | – | – | CCOc1ncc(-c2cccc(COC(=O)NC(=N)N)n2)cn1 [Example 05] |
| 978 | 3 | – | – | – | N=C(N)NC(=O)OCc1cccc(-c2cnc(OCc3cscn3)nc2)n1 [Example 30] |
| 2390 | 5 | – | – | – | C[C@@H](F)COc1ncc(-c2cccc(COC(=O)NC(=N)N)n2)cn1 [Example 11] |
| 2010 | 5 | – | – | – | CCCOc1ncc(-c2cccc(COC(=O)NC(=N)N)n2)cn1 [Example 07, [6-(2-propoxypyrimidin-5-yl)-2-pyridyl]methyl N-carbamimidoylcarbamate] |
| 3770 | 4 | – | – | – | N#CC1(COc2ncc(-c3cccc(COC(=O)NC(=N)N)n3)cn2)CCC1 [Example 27] |
| 3620 | 5 | – | – | – | N=C(N)NC(=O)OCc1cccc(-c2cnc(OCC3(F)CC3)nc2)n1 [Example 17, [6-[2-[(1-fluorocyclopropyl)methoxy]pyrimidin-5-yl]-2-pyridyl]-methyl N-carbamimidoylcarbamate] |
| 503 | 2 | – | – | – | N=C(N)NC(=O)OCc1cccc(-c2cnc(OCc3cnns3)nc2)n1 [Example 34] |
| 1020 | 3 | – | – | – | N=C(N)NC(=O)OCc1cccc(-c2cnc(OCc3csnn3)nc2)n1 [Example 35] |
| 8070 | 10 | – | – | – | COc1ncc(-c2cccc(COC(=O)NC(=N)N)n2)cn1 [Example 02] |
| 3190 | 4 | – | – | – | N#CC1(COc2ncc(-c3cccc(COC(=O)NC(=N)N)n3)cn2)CC1 [Example 21] |
| 659 | 2 | – | – | – | N=C(N)NC(=O)OCc1cccc(-c2cnc(OCc3cncs3)nc2)n1 [Example 29] |
| 2520 | 3 | – | – | 193 to 196 | N=C(N)NC(=O)OCc1cccc(-c2cnc(OC[C@H]3CC3(F)F)nc2)n1 [Example 26, [6-[2-[[(1R)-2,2-difluorocyclopropyl]methoxy]pyrimidin-5-yl]-2-pyridyl]methyl N-carbamimidoylcarbamate] |
| 2690 | 4 | – | – | – | C#CCCOc1ncc(-c2cccc(COC(=O)NC(=N)N)n2)cn1 [Example 08, [6-(2-but-3-ynoxypyrimidin-5-yl)-2-pyridyl]methyl N-carbamimidoylcarbamate] |
| 5190 | 8 | – | – | – | N=C(N)NC(=O)OCc1cccc(-c2cnc(O[C@H]3CCOC3)nc2)n1 [Example 15] |

The remaining lines, values behind:

| SMILES | IC50 (AOC1; Table 1, read-out: AOC1 IC50) [nM] | IC50 (AOC3; Table 1, read-out: AOC3 IC50) [nM] | IC50 (AOC1; [1]) [nM] | IC50 (AOC3; [2]) [nM] | melting point [°C] |
| --- | --- | --- | --- | --- | --- |
| COC1CN(c2ncc(-c3cccc(COC(=O)NC(=N)N)n3)cn2)C1 [Example 13] | 1480 | 2 | – | – | – |
| CC(F)(F)COc1ccc(-c2cccc(COC(=O)NC(=N)N)n2)cn1 [Example 18] | 1400 | 3 | – | – | – |
| COCCN(C)c1ncc(-c2cccc(COC(=O)NC(=N)N)n2)cn1 [Example 16] | 718 | 9 | – | – | – |
| N=C(N)NC(=O)OCc1cccc(-c2cnc(OCC3CCN(C(=O)C4CC4)CC3)nc2)c1F [Ex. 74, p. 229, reference compound] | – | – | 8 | 1 | – |
| CC(=O)N1CCC(COc2ncc(-c3cccc(COC(=O)NC(=N)N)n3)cn2)CC1 [Example 37] | 227 | 3 | – | – | – |
| N=C(N)NC(=O)OCc1cccc(-c2cnc(OCC3CCN(C(=O)C4CC4)CC3)nc2)n1 [Example 38] | 322 | 3 | – | – | – |
| COC1CN(c2ncc(-c3cccc(COC(=O)NC(=N)N)c3F)cn2)C1 [Ex. 63, p. 227, reference compound] | – | – | 100 | 1 | – |
| CC(F)(F)CNc1ncc(-c2cccc(COC(=O)NC(=N)N)n2)cn1 [Example 19] | – | 9 | – | – | – |
| N=C(N)NC(=O)OCc1cccc(-c2cnc(C3CC3)nc2)n1 [Example 03, [6-(2-cyclopropylpyrimidin-5-yl)-2-pyridyl]methyl N-carbamimidoylcarbamate] | 8030 | 8 | – | – | – |
| N=C(N)NC(=O)OCc1cccc(-c2cnc(N3CCOCC3)nc2)n1 [Example 14] | 1340 | 3 | – | – | – |
| CN(c1ncc(-c2cccc(COC(=O)NC(=N)N)n2)cn1)C1CCOC1 (centres unmarked) [Example 25] | 483 | 3 | – | – | – |
| N=C(N)NC(=O)OCc1cccc(-c2cnc(N3CCOCC3)nc2)c1F [Ex. 81, p. 229, reference compound] | – | – | 174 | 1 | – |
| N=C(N)NC(=O)OCc1cccc(-c2ccc(OCc3ccon3)nc2)n1 [Example 23] | 3820 | 2 | – | – | – |
| N=C(N)NC(=O)OCc1cccc(-c2cnc(C3CCOCC3)nc2)n1 [Example 12] | 7530 | 5 | – | – | – |
| CN(C)c1ncc(-c2cccc(COC(=O)NC(=N)N)n2)cn1 [Example 04] | 1720 | 5 | – | – | – |
| COCCOc1ncc(-c2cccc(COC(=O)NC(=N)N)c2F)cn1 [Ex. 197, p. 243, reference compound] | – | – | 97 | 6 | – |
| CC(=O)N1CCC(COc2ncc(-c3cccc(COC(=O)NC(=N)N)c3F)cn2)CC1 [Ex. 11, p. 221, reference compound] | – | – | 6 | 1 | – |
| CCOc1ncc(-c2cccc(COC(=O)NC(=N)N)c2F)cn1 [Ex. 136, p. 235, reference compound] | – | – | 60 | 6 | – |
| CN(c1ncc(-c2cccc(COC(=O)NC(=N)N)n2)cn1)C1CCOCC1 [Example 32] | 710 | 2 | – | – | – |
| COCCNc1ncc(-c2cccc(COC(=O)NC(=N)N)n2)cn1 [Example 09] | 1410 | 7 | – | – | – |

From patent US9926292B2, “Pyridinyl derivatives, pharmaceutical compositions and uses thereof” (Boehringer Ingelheim International GmbH, priority 2016, dated 2018)
